Test results: patent publication US20100041089A1, “IMPROVED METHOD FOR DETECTING CHEMICAL […]” (priority 2006, published 2010)

Tested on: yeast genes (expressed mRNA)
Test: DNA chip measurement of expressed mRNA of yeast genes after culture with a toxic chemical substance
Assay type: cell-based, Saccharomyces cerevisiae S288C
How it was run: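 Expression is given as treated/untreated fluorescence ratio on a whole-genome yeast DNA chip, a ratio of two or more being significant. Log-phase S288C cultures in YPD at 25 °C received the chemical for 2 h at a dose that slows growth without killing. mRNA was reverse-transcribed with Cy3- or Cy5-dUTP.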

Compound: C=CC=O [(14), Acrolein]
- The level of expressed mRNA in the presence of chemical substance/The level of expressed mRNA in the absence of chemical substance (yeast gene YAL053W, cultured two hours with substance): 0.7
- The level of expressed mRNA in the presence of chemical substance/The level of expressed mRNA in the absence of chemical substance (yeast gene YAR028W, cultured two hours with substance): 1.2
- The level of expressed mRNA in the presence of chemical substance/The level of expressed mRNA in the absence of chemical substance (yeast gene YBL048W, cultured two hours with substance): 2.0
- The level of expressed mRNA in the presence of chemical substance/The level of expressed mRNA in the absence of chemical substance (yeast gene YBL049W, cultured two hours with substance): 1.5
- The level of expressed mRNA in the presence of chemical substance/The level of expressed mRNA in the absence of chemical substance (yeast gene YBL064C (detoxification protein gene)): 5.0
- The level of expressed mRNA in the presence of chemical substance/The level of expressed mRNA in the absence of chemical substance (yeast gene YBL107C, cultured two hours with substance): 2.5
- The level of expressed mRNA in the presence of chemical substance/The level of expressed mRNA in the absence of chemical substance (yeast gene YBR062C, cultured two hours with substance): 2.6
- The level of expressed mRNA in the presence of chemical substance/The level of expressed mRNA in the absence of chemical substance (yeast gene YBR116C, cultured two hours with substance): 2.7
- The level of expressed mRNA in the presence of chemical substance/The level of expressed mRNA in the absence of chemical substance (yeast gene YCR013C, cultured two hours with substance): 1.5
- The level of expressed mRNA in the presence of chemical substance/The level of expressed mRNA in the absence of chemical substance (yeast gene YCR102C, cultured two hours with substance): 4.1
- The level of expressed mRNA in the presence of chemical substance/The level of expressed mRNA in the absence of chemical substance (yeast gene YDL021W, cultured for two hours with substance): 3.7
- The level of expressed mRNA in the presence of chemical substance/The level of expressed mRNA in the absence of chemical substance (yeast gene YDL059C, DNA repair protein genes, cultured two hours with substance): 4.7
- The level of expressed mRNA in the presence of chemical substance/The level of expressed mRNA in the absence of chemical substance (yeast gene YDL072C, cultured two hours with substance): 1.8
- The level of expressed mRNA in the presence of chemical substance/The level of expressed mRNA in the absence of chemical substance (yeast gene YDL204W, cultured two hours with substance): 2.4
- The level of expressed mRNA in the presence of chemical substance/The level of expressed mRNA in the absence of chemical substance (yeast gene YDL218W, cultured two hours with substance): 4.8
- The level of expressed mRNA in the presence of chemical substance/The level of expressed mRNA in the absence of chemical substance (yeast gene YDL222C, cultured two hours with substance): 1.3
- The level of expressed mRNA in the presence of chemical substance/The level of expressed mRNA in the absence of chemical substance (yeast gene YDR031W, cultured two hours with substance): 2.5
- The level of expressed mRNA in the presence of chemical substance/The level of expressed mRNA in the absence of chemical substance (yeast gene YDR330W, cultured two hours with substance): 1.1
- The level of expressed mRNA in the presence of chemical substance/The level of expressed mRNA in the absence of chemical substance (yeast gene YDR391C, cultured two hours with substance): 2.3
- The level of expressed mRNA in the presence of chemical substance/The level of expressed mRNA in the absence of chemical substance (yeast gene YDR411C, cultured two hours with substance): 0.8
- The level of expressed mRNA in the presence of chemical substance/The level of expressed mRNA in the absence of chemical substance (yeast gene YDR486C, cultured two hours with substance): 2.4
- The level of expressed mRNA in the presence of chemical substance/The level of expressed mRNA in the absence of chemical substance (yeast gene YDR511W, cultured two hours with substance): 2.2
- The level of expressed mRNA in the presence of chemical substance/The level of expressed mRNA in the absence of chemical substance (yeast gene YDR545W, cultured two hours with substance): 0.7
- The level of expressed mRNA in the presence of chemical substance/The level of expressed mRNA in the absence of chemical substance (yeast gene YEL001C, cultured two hours with substance): 1.3
- The level of expressed mRNA in the presence of chemical substance/The level of expressed mRNA in the absence of chemical substance (yeast gene YEL057C, cultured two hours with the chemical substance): 1.5
- The level of expressed mRNA in the presence of chemical substance/The level of expressed mRNA in the absence of chemical substance (yeast gene YER004W, cultured two hours with substance): 1.8
- The level of expressed mRNA in the presence of chemical substance/The level of expressed mRNA in the absence of chemical substance (yeast gene YER012W): 4.6
- The level of expressed mRNA in the presence of chemical substance/The level of expressed mRNA in the absence of chemical substance (yeast gene YER035W, cultured two hours with substance): 1.0
- The level of expressed mRNA in the presence of chemical substance/The level of expressed mRNA in the absence of chemical substance (yeast gene YER038C, cultured two hours with substance): 1.3
- The level of expressed mRNA in the presence of chemical substance/The level of expressed mRNA in the absence of chemical substance (yeast gene YER079W, cultured two hours with substance): 1.6
- The level of expressed mRNA in the presence of chemical substance/The level of expressed mRNA in the absence of chemical substance (yeast gene YER106W, cultured two hours with substance): 1.5
- The level of expressed mRNA in the presence of chemical substance/The level of expressed mRNA in the absence of chemical substance (yeast gene YER158C, cultured two hours with substance): 0.9
- The level of expressed mRNA in the presence of chemical substance/The level of expressed mRNA in the absence of chemical substance (yeast gene YER163C, cultured two hours with substance): 1.9
- The level of expressed mRNA in the presence of chemical substance/The level of expressed mRNA in the absence of chemical substance (yeast gene YER175C, cultured two hours with substance): 1.1
- The level of expressed mRNA in the presence of chemical substance/The level of expressed mRNA in the absence of chemical substance (yeast gene YFL006W, cultured two hours with substance): 1.7
- The level of expressed mRNA in the presence of chemical substance/The level of expressed mRNA in the absence of chemical substance (yeast gene YFL010C, cultured two hours with substance): 1.4
- The level of expressed mRNA in the presence of chemical substance/The level of expressed mRNA in the absence of chemical substance (yeast gene YFL014W, DNA repair protein genes, cultured two hours with substance): 7.3
- The level of expressed mRNA in the presence of chemical substance/The level of expressed mRNA in the absence of chemical substance (yeast gene YFL024C, cultured two hours with substance): 3.3
- The level of expressed mRNA in the presence of chemical substance/The level of expressed mRNA in the absence of chemical substance (yeast gene YFL032W, cultured two hours with substance): 0.6
- The level of expressed mRNA in the presence of chemical substance/The level of expressed mRNA in the absence of chemical substance (yeast gene YFR003C, cultured two hours with substance): 2.1
- The level of expressed mRNA in the presence of chemical substance/The level of expressed mRNA in the absence of chemical substance (yeast gene YGL037C, cultured two hours with substance): 1.0
- The level of expressed mRNA in the presence of chemical substance/The level of expressed mRNA in the absence of chemical substance (yeast gene YGL047W, cultured two hours with substance): 2.3
